In patent publication US20250154169A1, “COMPOUNDS AND METHODS FOR MODULATING SPLICING” (REMIX THERAPEUTICS INC., priority 2021, published 2025):
Where two headings read alike, the source gives them in different places.

What was measured:
[1] = system: HTT mRNA; assay: Splicing RT-qPCR assay, HTT canonical (CJ) and alternative (AJ) junction mRNA; assay type: cell-based, human; conditions: Homo sapiens, A673 or K562 cells, 24 hours compound treatment; for IC50: read-out: HTT CJ (IC50, decrease in canonical junction mRNA); for AC50: read-out: HTT AJ (AC50, increase in alternative junction mRNA)
Method in brief: (§1)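 A673 or K562 cells were treated 24 h at 37 °C with an 11-point 3-fold compound dilution series (top 10 uM, DMSO ≤0.25%). Lysates went to one-step RT-qPCR measuring canonical (CJ) and alternative-exon (AJ) junction transcripts, normalized to GAPDH, GUSB or PPIA.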

[2] = system: MYB mRNA; assay: Splicing RT-qPCR assay, MYB canonical (CJ) and alternative (AJ) junction mRNA; assay type: cell-based, human; conditions: Homo sapiens, A673 or K562 cells, 24 hours compound treatment, RT-qPCR; for AC50: read-out: MYB AJ (AC50, increase in alternative junction mRNA); for IC50: read-out: MYB CJ (IC50, decrease in canonical junction mRNA)
Method in brief: as §1

SMILES | IC50 ([1]; 24 h) | IC50 ([2]; 24 h) | AC50 [1] | AC50 ([2]; 24 h) | IC50 [1] | AC50 [2] | IC50 [2]
CCn1cc2c(N3CCNCC3)ccc(C(=O)Nc3cc(F)c4nc(CO)oc4c3)c2n1 [Compound 582, 2-ethyl-N-[4-fluoro-2-(hydroxymethyl)-1,3-benzoxazol-6-yl]-4-(piperazin-1-yl) indazole-7-carboxamide] | 100 to 1000 nM | 100 to 1000 nM | 100 to 1000 nM | 100 to 1000 nM |  |  | 
Cc1cn2cc(NC(=O)c3c(F)cc(N4CC[C@@H](NC5(C#N)CC5)C4)c4cn(C)nc34)cc(F)c2n1 [Compound 587, 4-[(3R)-3-[(1-cyanocyclopropyl)amino]pyrrolidin-1-yl]-6-fluoro-N-{8-fluoro-2-methylimidazo[1,2-a]pyridin-6-yl}-2-methylindazole-7-carboxamide] | 100 to 1000 nM | 100 to 1000 nM | 100 to 1000 nM | 100 to 1000 nM |  |  | 
CCn1cc2c(N3CCC(NC4(CO)CC4)CC3)ccc(C(=O)Nc3cc(F)c4nc(C)cn4c3)c2n1 [Compound 590] | 1000 to 10000 nM | 100 to 1000 nM | 1000 to 10000 nM | 100 to 1000 nM |  |  | 
CCn1cc2c(N3C[C@H](C)N[C@@H](C)C3)ccc(C(=O)Nc3cc(F)c4nc(C)cn4c3)c2n1 [Compound 592] | 1000 to 10000 nM | 100 to 1000 nM | > 10000 nM | 100 to 1000 nM |  |  | 
Cc1cn2cc(NC(=O)c3ccc(N4CC[C@@H](NC5(C#N)CC5)C4)c4cn(C)nc34)cc(F)c2n1 [Compound 596, 4-[(3R)-3-[(1-cyanocyclopropyl)amino]pyrrolidin-1-yl]-N-{8-fluoro-2-methylimidazo[1,2-a]pyridin-6-yl}-2-methylindazole-7-carboxamide] | > 10000 nM | 1000 to 10000 nM | > 10000 nM | 1000 to 10000 nM |  |  | 
Cc1cn2cc(NC(=O)c3ccc(N4CC[C@@H](NC5(C)CC5)C4)c4cn(C)nc34)cc(F)c2n1 [Compound 598] | 1000 to 10000 nM | < 100 nM | 1000 to 10000 nM | 100 to 1000 nM |  |  | 
Cc1cn2cc(NC(=O)c3ccc(N4CC[C@@H](NC5CC(O)C5)C4)c4cn(C)nc34)cc(F)c2n1 (stereo partly shown) [Compound 602] | 1000 to 10000 nM | < 100 nM | 1000 to 10000 nM | 100 to 1000 nM |  |  | 
Cc1cn2cc(NC(=O)c3ccc(N4CCN[C@@H](C5CC5)C4)c4cn(C)nc34)cc(F)c2n1 [Compound 606, 4-[(3S)-3-cyclopropylpiperazin-1-yl]-N-{8-fluoro-2-methylimidazo[1,2-a]pyridin-6-yl}-2-methylindazole-7-carboxamide] | 100 to 1000 nM | 100 to 1000 nM | 1000 to 10000 nM | 100 to 1000 nM |  |  | 
CN[C@@H]1CCN(c2ccc(C(=O)Nc3cn4cc(C)nc4c(Cl)n3)c3nn(C)cc23)C1 [Compound 614] | > 10000 nM | 100 to 1000 nM | > 10000 nM | 100 to 1000 nM |  |  | 
CCn1cc2c(N3C[C@@H](C4CC4)N[C@@H](C)C3)ccc(C(=O)Nc3cc(F)c4nc(C)cn4c3)c2n1 [Compound 617, 4-((3R,5S)-3-cyclopropyl-5-methylpiperazin-1-yl)-2-ethyl-N-(8-fluoro-2-methylimidazo[1,2-a]pyridin-6-yl)-2H-indazole-7-carboxamide] | 1000 to 10000 nM | 100 to 1000 nM | > 10000 nM | 1000 to 10000 nM |  |  | 
Cc1cn2cc(NC(=O)c3ccc(N4CCC(N5C6CNCC65)C4)c4cn(C)nc34)cc(F)c2n1 (stereo not shown) [Compound 622, 4-(3-{3,6-diazabicyclo[3.1.0]hexan-6-yl}pyrrolidin-1-yl)-N-{8-fluoro-2-methylimidazo[1,2-a]pyridin-6-yl}-2-methylindazole-7-carboxamide] |  |  | > 10000 nM |  | > 10000 nM | > 10000 nM | 1000 to 10000 nM

The next lines start with results.

IC50 ([1]; 24 h) | IC50 ([2]; 24 h) | SMILES | AC50 [1] | AC50 ([2]; 24 h) | IC50 [1] | AC50 [2] | IC50 [2]
1000 to 10000 nM | 100 to 1000 nM | CCn1cc2c(N3CCC(NC4C5COCC54)CC3)ccc(C(=O)Nc3cc(F)c4nc(C)cn4c3)c2n1 (stereo not shown) [Compound 581, 2-ethyl-N-{8-fluoro-2-methylimidazo[1,2-a]pyridin-6-yl}-4-(4-{3-oxabicyclo[3.1.0]hexan-6-ylamino}piperidin-1-yl) indazole-7-carboxamide] | 1000 to 10000 nM | 100 to 1000 nM |  |  | 
1000 to 10000 nM | 100 to 1000 nM | CCn1cc2c(N3C[C@@H](F)[C@H](NC)C3)ccc(C(=O)Nc3cc(F)c4nc(C)cn4c3)c2n1 [Compound 584, 2-ethyl-N-{8-fluoro-2-methylimidazo[1,2-a]pyridin-6-yl}-4-[(3R,4R)-3-fluoro-4-(methylamino)pyrrolidin-1-yl]indazole-7-carboxamide] | 1000 to 10000 nM | 100 to 1000 nM |  |  | 
> 10000 nM | 100 to 1000 nM | CCn1cc2c(N3C[C@H](F)[C@H](NC)C3)ccc(C(=O)Nc3cc(F)c4nc(C)cn4c3)c2n1 [Compound 585, cis-2-ethyl-N-(8-fluoro-2-methylimidazo[1,2-a]pyridin-6-yl)-4-((3S,4R)-3-fluoro-4-(methylamino)pyrrolidin-1-yl)-2H-indazole-7-carboxamide bis(2,2,2-trifluoroacetate)] | > 10000 nM | 100 to 1000 nM |  |  | 
> 10000 nM | 100 to 1000 nM | Cc1cn2cc(NC(=O)c3ccc(N4CCN[C@@H](C(C)C)C4)c4cn(C)nc34)cc(F)c2n1 [Compound 589, N-{8-fluoro-2-methylimidazo[1,2-a]pyridin-6-yl}-4-[(3S)-3-isopropylpiperazin-1-yl]-2-methylindazole-7-carboxamide] | > 10000 nM | 1000 to 10000 nM |  |  | 
> 10000 nM | 100 to 1000 nM | Cc1cn2cc(NC(=O)c3ccc(N4CC[C@@H](NCc5ncccn5)C4)c4cn(C)nc34)cc(F)c2n1 [Compound 594, N-{8-fluoro-2-methylimidazo[1,2-a]pyridin-6-yl}-2-methyl-4-[(3R)-3-[(pyrimidin-2-ylmethyl)amino]pyrrolidin-1-yl]indazole-7-carboxamide] | > 10000 nM | 1000 to 10000 nM |  |  | 
> 10000 nM | 1000 to 10000 nM | CCn1cc2c(N3C[C@@H](C)N[C@@H](C(C)C)C3)ccc(C(=O)Nc3cc(F)c4nc(C)cn4c3)c2n1 [Compound 600, 2-ethyl-N-{8-fluoro-2-methylimidazo[1,2-a]pyridin-6-yl}-4-[(3S,5R)-3-isopropyl-5-methylpiperazin-1-yl] indazole-7-carboxamide] | > 10000 nM | 1000 to 10000 nM |  |  | 
> 10000 nM | 1000 to 10000 nM | Cc1cn2cc(NC(=O)c3ccc(N4CC[C@H](NC5CC(O)C5)C4)c4cn(C)nc34)cc(F)c2n1 (stereo partly shown) [Compound 603] | > 10000 nM | > 10000 nM |  |  | 
> 10000 nM | 1000 to 10000 nM | CCn1cc2c(N3CCNCC3)ccc(C(=O)Nc3cn4cc(C)nc4c(Cl)n3)c2n1 [Compound 604, N-{8-chloro-2-methylimidazo[1,2-a]pyrazin-6-yl}-2-ethyl-4-(piperazin-1-yl) indazole-7-carboxamide] | > 10000 nM | 1000 to 10000 nM |  |  | 
1000 to 10000 nM | 100 to 1000 nM | Cc1cn2cc(NC(=O)c3ccc(N4CCN[C@H](C5CC5)C4)c4cn(C)nc34)cc(F)c2n1 [Compound 607, 4-[(3R)-3-cyclopropylpiperazin-1-yl]-N-{8-fluoro-2-methylimidazo[1,2-a]pyridin-6-yl}-2-methylindazole-7-carboxamide] | 1000 to 10000 nM | 100 to 1000 nM |  |  | 
> 10000 nM | 100 to 1000 nM | CN[C@@H]1CCN(c2ccc(C(=O)Nc3cn4cc(C)nc4c(Oc4ccccc4)n3)c3nn(C)cc23)C1 [Compound 610, 2-methyl-N-{2-methyl-8-phenoxyimidazo[1,2-a]pyrazin-6-yl}-4-[(3R)-3-(methylamino)pyrrolidin-1-yl]indazole-7-carboxamide] | 1000 to 10000 nM | 100 to 1000 nM |  |  | 
> 10000 nM | > 10000 nM | CN[C@@H]1CCN(c2ccc(C(=O)Nc3cn4cc(C)nc4c(N4CCOCC4)n3)c3nn(C)cc23)C1 [Compound 612, 2-methyl-N-[2-methyl-8-(morpholin-4-yl)imidazo[1,2-a]pyrazin-6-yl]-4-[(3R)-3-(methylamino)pyrrolidin-1-yl]indazole-7-carboxamide] | > 10000 nM | > 10000 nM |  |  | 
100 to 1000 nM | 100 to 1000 nM | CCn1cc2c(N3C[C@@H](C)N[C@@H](C4CC4)C3)ccc(C(=O)Nc3cc(F)c4nc(C)cn4c3)c2n1 [Compound 616, 4-((3S,5R)-3-cyclopropyl-5-methylpiperazin-1-yl)-2-ethyl-N-(8-fluoro-2-methylimidazo[1,2-a]pyridin-6-yl)-2H-indazole-7-carboxamide] | 1000 to 10000 nM | 100 to 1000 nM |  |  | 
> 10000 nM | 100 to 1000 nM | CCn1cc2c(N3CC[C@@H](N(C)C)C3)cc(Cl)c(C(=O)Nc3cc(F)c4nc(C)cn4c3)c2n1 [Compound 619, 6-chloro-4-[(3R)-3-(dimethylamino)pyrrolidin-1-yl]-2-ethyl-N-{8-fluoro-2-methylimidazo[1,2-a]pyridin-6-yl}indazole-7-carboxamide] | > 10000 nM | 100 to 1000 nM |  |  | 
> 10000 nM | 1000 to 10000 nM | Cc1cn2cc(NC(=O)c3ccc(N4CC[C@@H](N5C[C@@H](C)N[C@@H](C)C5)C4)c4cn(C)nc34)cc(F)c2n1 [Compound 621, 4-[(3R)-3-[(3R,5S)-3,5-dimethylpiperazin-1-yl]pyrrolidin-1-yl]-N-{8-fluoro-2-methylimidazo[1,2-a]pyridin-6-yl}-2-methylindazole-7-carboxamide] | > 10000 nM | 100 to 1000 nM |  |  | 
